Measurements published in patent US11274074B2, “Pharmaceutical composition for ANO1 antagonist with anticancer activity” (INDUSTRY-ACADEMIC COOPERATION FOUNDATION, YONSEI UNIVERSITY, priority 2018, dated 2022).

Assays:
[1] = Stability in mouse plasma (LC-MS/MS); type: in vitro ADME; details: for half-life at 5 μM: mouse, 37° C.
[2] = target: ANO1 (Homo sapiens (Human), UniProt Q5XXA6); test: Selective inhibition of ANO1 over ANO2 (Table 1), ANO1 IC50; type: cell-based
[3] = target: T1, ANO2 (Homo sapiens (Human), UniProt Q9NQ90); test: Selective inhibition of ANO1 over ANO2 (Table 1), ANO2 IC50; type: cell-based
[4] = test system: PC-3 cells highly expressing ANO1; test: MTS cell viability, PC-3 cells highly expressing ANO1; type: cell-based; details: MTS assay, 24 hours
Method: (§1) The cell viability was determined by the MTS assay (mean±S.E., n=4; * P<0.05, ** P<0.01, *** P<0.001).
(§2) 24 hours later, after adding 20 μL of an MTS solution to each well and culturing at 37° C. for 30 minutes under 5% CO2, absorbance was measured at 490 nm using a microplate reader.
(§3) In FIG. 2B, PC-3 cells were treated with the [Chemical Formula 5] compound at different concentrations in the same manner as in FIG. 2A. […] After adding 20 μL of an MTS solution to each well and culturing at 37° C. for 30 minutes under 5% CO2, absorbance was measured at 490 nm using a microplate reader.

[5] = test system: PC-3 cells not expressing ANO1; test: MTS cell viability, PC-3 cells not expressing ANO1; type: cell-based; details: MTS assay, 24 hours
Method: as §1, §2, §3

[6] = test system: MCF7 breast cancer cells; test: MTS cell viability, MCF7 breast cancer cells highly expressing ANO1; type: cell-based; details: MTS assay, 24 hours
Method: (§4) The cell viability was determined by the MTS assay (mean±S.E., n=4).
as §2

[7] = test system: BxPC3 pancreatic cancer cells; test: MTS cell viability, BxPC3 pancreatic cancer cells highly expressing ANO1; type: cell-based; details: MTS assay, 24 hours
Method: as §4, §2

[8] = target: ANO1 (TMEM16A) (Homo sapiens (Human), UniProt Q5XXA6); test: Short-circuit current (apical membrane current) in FRT cells expressing ANO1; type: cell-based
Method: Specifically, Fischer rat thyroid (FRT) cells expressing ANO1 were differentiated by culturing in DMEM/Ham's F12 medium in Transwell for 5 days and then short-circuit current was measured using an Ussing chamber. Then, a regular HCO^3− solution (120 mM NaCl, 5 mM KCl, 1 mM MgCl2, 2.5 mM HEPES, 1 mM CaCl2, 10 mM glucose, 25 mM NaHCO3) was added to a basolateral bath of the Ussing chamber, and a luminal bath was stabilized for 20 minutes by creating a Cl^− gradient by maintaining at 70 mM Cl^−. Then, after treating with the [Chemical Formula 5] compound at different concentrations (0, 0.003, 0.01, 0.03, 0.1, 0.3, 1.0 μM) and carrying out reaction for 20 minutes, ATP (100 μM) was added and the inhibitory effect for Cl^− secretion was measured through ANO1 activity.

[9] = target: T1, ANO2; test: Short-circuit current in FRT cells expressing ANO2; type: cell-based
[10] = target: human WT-CFTR (Homo sapiens (Human), UniProt P13569); test: Short-circuit current in FRT cells expressing CFTR; type: cell-based
[11] = test system: ANO1 protein in PC-3 cells; test: Western blot of ANO1 protein level in PC-3 cells expressing ANO1 at high level; type: cell-based; details: for decrease of the expression level of ANO1: PC-3 cells
[12] = test system: smooth muscle of the mouse ileum; test: Contraction of smooth muscle using mouse ileal section

T1 sequence (Q9NQ90 other isoform, or with tags, fused parts or gaps, species assumed): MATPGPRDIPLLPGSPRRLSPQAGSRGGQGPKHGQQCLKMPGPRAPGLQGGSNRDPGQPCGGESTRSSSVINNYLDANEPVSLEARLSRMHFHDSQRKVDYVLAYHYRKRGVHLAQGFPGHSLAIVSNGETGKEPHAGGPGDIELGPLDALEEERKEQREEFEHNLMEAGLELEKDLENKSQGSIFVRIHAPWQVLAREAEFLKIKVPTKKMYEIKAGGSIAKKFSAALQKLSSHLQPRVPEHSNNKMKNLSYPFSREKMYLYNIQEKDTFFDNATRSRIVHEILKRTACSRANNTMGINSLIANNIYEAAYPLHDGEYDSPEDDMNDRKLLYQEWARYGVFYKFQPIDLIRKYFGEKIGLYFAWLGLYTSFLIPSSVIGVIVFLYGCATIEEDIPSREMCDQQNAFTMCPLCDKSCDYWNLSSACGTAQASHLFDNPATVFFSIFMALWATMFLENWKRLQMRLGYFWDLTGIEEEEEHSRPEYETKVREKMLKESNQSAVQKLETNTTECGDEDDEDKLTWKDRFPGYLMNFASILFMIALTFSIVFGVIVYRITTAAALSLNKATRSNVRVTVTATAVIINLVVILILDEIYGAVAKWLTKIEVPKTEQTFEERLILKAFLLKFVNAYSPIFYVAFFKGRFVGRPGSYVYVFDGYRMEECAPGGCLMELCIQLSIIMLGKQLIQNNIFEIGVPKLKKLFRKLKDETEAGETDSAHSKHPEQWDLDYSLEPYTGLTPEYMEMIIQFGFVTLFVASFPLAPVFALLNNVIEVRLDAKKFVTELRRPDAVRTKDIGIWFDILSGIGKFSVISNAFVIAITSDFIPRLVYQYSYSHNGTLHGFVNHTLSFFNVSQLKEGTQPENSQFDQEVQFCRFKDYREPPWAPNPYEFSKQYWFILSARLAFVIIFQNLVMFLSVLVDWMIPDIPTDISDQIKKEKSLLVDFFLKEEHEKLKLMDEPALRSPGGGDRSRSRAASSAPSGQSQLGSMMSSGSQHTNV
Sequence of ANO1 (Q5XXA6 whole entry, species assumed): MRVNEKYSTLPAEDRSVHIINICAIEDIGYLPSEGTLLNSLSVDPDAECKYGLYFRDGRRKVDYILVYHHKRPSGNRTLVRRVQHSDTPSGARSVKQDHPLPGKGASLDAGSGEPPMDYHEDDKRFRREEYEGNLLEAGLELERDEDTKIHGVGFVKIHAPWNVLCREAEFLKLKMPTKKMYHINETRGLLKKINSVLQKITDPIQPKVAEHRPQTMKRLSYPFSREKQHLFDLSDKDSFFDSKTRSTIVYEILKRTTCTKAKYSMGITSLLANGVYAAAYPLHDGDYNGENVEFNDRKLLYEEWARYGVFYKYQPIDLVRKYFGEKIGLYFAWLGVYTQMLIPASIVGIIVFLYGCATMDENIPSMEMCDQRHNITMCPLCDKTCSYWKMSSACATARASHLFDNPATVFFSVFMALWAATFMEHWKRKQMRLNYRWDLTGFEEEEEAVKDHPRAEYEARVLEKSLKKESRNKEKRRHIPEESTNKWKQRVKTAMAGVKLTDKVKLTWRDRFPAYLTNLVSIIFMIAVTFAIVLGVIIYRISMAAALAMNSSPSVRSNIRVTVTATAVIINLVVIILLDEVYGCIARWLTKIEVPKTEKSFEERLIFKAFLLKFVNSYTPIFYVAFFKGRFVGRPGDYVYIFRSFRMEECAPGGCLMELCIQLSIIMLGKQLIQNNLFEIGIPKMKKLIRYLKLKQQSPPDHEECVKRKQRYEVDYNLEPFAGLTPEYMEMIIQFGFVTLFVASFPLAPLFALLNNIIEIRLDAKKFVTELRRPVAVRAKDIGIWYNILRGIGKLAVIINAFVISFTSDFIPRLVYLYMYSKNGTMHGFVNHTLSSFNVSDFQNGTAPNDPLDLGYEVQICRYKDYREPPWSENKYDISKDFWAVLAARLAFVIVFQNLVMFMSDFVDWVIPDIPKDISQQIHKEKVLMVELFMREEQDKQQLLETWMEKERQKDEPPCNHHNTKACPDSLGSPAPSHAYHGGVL
Sequence of human WT-CFTR (P13569 whole entry): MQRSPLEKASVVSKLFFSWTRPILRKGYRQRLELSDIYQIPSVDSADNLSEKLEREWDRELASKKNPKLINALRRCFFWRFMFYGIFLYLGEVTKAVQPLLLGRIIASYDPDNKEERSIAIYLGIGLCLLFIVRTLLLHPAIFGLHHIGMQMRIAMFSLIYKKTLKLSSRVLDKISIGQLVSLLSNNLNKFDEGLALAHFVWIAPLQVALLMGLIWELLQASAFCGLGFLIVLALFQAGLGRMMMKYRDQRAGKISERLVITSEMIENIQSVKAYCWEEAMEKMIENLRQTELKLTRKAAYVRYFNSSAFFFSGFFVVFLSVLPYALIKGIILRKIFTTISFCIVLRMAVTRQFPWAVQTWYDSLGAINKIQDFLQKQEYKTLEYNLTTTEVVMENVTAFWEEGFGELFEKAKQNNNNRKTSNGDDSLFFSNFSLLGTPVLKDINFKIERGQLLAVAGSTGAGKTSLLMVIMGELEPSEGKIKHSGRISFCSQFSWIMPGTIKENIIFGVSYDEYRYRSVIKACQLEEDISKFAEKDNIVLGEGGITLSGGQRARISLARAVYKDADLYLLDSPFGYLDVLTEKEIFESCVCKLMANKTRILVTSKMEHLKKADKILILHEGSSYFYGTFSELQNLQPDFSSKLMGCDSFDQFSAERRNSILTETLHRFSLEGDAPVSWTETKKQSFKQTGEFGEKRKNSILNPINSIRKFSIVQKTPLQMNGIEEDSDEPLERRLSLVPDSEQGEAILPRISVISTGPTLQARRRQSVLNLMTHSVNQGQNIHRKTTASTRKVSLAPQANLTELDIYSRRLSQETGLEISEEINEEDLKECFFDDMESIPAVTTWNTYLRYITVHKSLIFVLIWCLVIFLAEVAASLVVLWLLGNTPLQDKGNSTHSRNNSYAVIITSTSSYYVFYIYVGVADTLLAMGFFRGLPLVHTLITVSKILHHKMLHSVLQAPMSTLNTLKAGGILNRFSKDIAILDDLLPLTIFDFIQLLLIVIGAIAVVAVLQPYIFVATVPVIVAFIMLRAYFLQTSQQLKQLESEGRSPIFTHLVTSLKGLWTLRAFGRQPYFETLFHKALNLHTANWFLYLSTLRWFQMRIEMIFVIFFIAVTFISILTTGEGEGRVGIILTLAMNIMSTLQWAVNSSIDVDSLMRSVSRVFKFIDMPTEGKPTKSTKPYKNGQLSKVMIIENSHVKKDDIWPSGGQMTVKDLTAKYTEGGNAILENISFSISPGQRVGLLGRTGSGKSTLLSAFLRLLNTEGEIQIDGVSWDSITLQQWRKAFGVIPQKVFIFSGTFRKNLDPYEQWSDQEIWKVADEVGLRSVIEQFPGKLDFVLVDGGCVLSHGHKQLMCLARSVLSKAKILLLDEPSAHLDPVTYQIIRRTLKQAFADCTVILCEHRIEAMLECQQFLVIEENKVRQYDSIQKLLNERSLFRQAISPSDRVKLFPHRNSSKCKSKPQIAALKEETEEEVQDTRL
Sequence of ANO1 (TMEM16A) (Q5XXA6 whole entry, species assumed): as the sequence (Q5XXA6 whole entry, species assumed) above

| Compound | IC50 [2] | IC50 [3] | other results |
| --- | --- | --- | --- |
| COc1ccccc1/C=N/NC(=O)COc1ccc(Cl)cc1C [Ani9, reference compound] | – | – | plasma stability [1]: low; half-life at 5 μM [1]: 32 min |
| COc1ccccc1/C=N/NC(=O)c1cc2cc(Cl)ccc2o1 [Comparative Example 1] | > 100 µM | > 100 µM | – |
| COc1ccccc1-c1nnc(-c2cc3cc(Cl)ccc3o2)o1 [Comparative Example 2] | > 100 µM | > 100 µM | – |
| Cc1cc(Cl)ccc1OCC(=O)N/N=C/c1cccc(F)c1 [Comparative Example 5] | > 100 µM | – | – |
| Cc1cc(Cl)ccc1OCc1nnc(-c2ccccc2C(F)(F)F)o1 [Comparative Example 7] | > 100 µM | > 100 µM | – |
| Cc1cc(Cl)ccc1OCc1nnc(-c2ccccc2OC(F)(F)F)o1 [Comparative Example 8] | > 100 µM | – | – |
| Cc1cc(Cl)ccc1OCC(=O)N/N=C/c1cccc(OC(F)(F)F)c1 [Comparative Example 9] | > 100 µM | – | ANO1 inhibitory activity (in words) [2]: not to inhibit ANO1; effect on cell viability of PC-3 cells highly expressing ANO1 [4]: insignificant effect; effect on cell viability of PC3 cells not expressing ANO1 [5]: insignificant effect; effect on cell viability of MCF7 breast cancer cells highly expressing ANO1 [6]: insignificant effect; effect on cell viability of BxPC3 pancreatic cancer cells highly expressing ANO1 [7]: insignificant effect |
| CCOC(=O)c1cc2ccccn2c1/C=N/NC(=O)COc1ccc(Cl)cc1C [Comparative Example 12] | > 100 µM | > 100 µM | – |
| Cc1cc(Cl)ccc1OCC(=O)N/N=C1/C(=O)N(C)c2ccccc21 [Comparative Example 13] | > 100 µM | – | – |
| COC(=O)c1sc(NC(=O)COc2ccc(Cl)cc2C)nc1C [Comparative Example 16] | > 100 µM | – | – |
| Cc1cc(Cl)ccc1OCC(=O)N/N=C/c1ccccc1C(F)(F)F [Example 5] | 0.21 ± 0.04 µM | – | – |
| CCOC(=O)C(F)Oc1ccccc1/C=N/NC(=O)COc1ccc(Cl)cc1C (stereo not shown) [Example 7] | 15.7 ± 0.01 µM | 59.4 ± 0.45 µM | – |
| Cc1cc(Cl)ccc1OCC(=O)N/N=C/c1ccco1 [Example 8] | 25.7 ± 0.01 µM | – | – |
| Cc1cc(Cl)ccc1OCc1nnc(-c2ccco2)o1 [Example 9] | 63.8 ± 0.02 µM | > 100 µM | – |
| Cc1cc(Cl)ccc1OCC(=O)N/N=C/c1ccccn1 [Example 10] | 31.3 ± 0.57 µM | > 100 µM | – |
| COc1cccc(CNC(=O)COc2ccc(Cl)cc2C)c1 [Example 12] | 53.7 ± 0.05 µM | > 100 µM | – |
| Cc1cc(Cl)ccc1OCC(=O)Nc1nc2cc(Cl)ccc2o1 [Example 13] | 14.2 ± 0.07 µM | – | reduction of ANO1 expression level as compared to Ani9 ([11]; 10 μM): ~2.05 times; decrease of the expression level of ANO1 ([11]; 10 μM): 48.8±2.9% |
| CFTRinh-172 [reference compound] | – | – | inhibition of CFTR ([10]; 10 μM): completely inhibited |

The next lines start with results.

| IC50 [2] | IC50 [3] | Compound | other results |
| --- | --- | --- | --- |
| > 100 µM | – | COc1cccc(/C=N/NC(=O)COc2ccc(Cl)cc2C)c1 [Comparative Example 3] | – |
| > 100 µM | > 100 µM | COc1cccc(-c2nnc(COc3ccc(Cl)cc3C)o2)c1 [Comparative Example 4] | – |
| > 100 µM | > 100 µM | Cc1cc(Cl)ccc1OCc1nnc(-c2cccc(F)c2)o1 [Comparative Example 6] | – |
| > 100 µM | – | Cc1cc(Cl)ccc1OCc1nnc(-c2cccc(OC(F)(F)F)c2)o1 [Comparative Example 10] | – |
| > 100 µM | – | Cc1cc(Cl)ccc1OCc1nnc(-c2ccccn2)o1 [Comparative Example 11] | – |
| > 100 µM | – | Cc1cc(Cl)ccc1OCC(=O)N/N=C1\CCOc2ccccc21 [Comparative Example 14] | – |
| > 100 µM | > 100 µM | Cc1cc(Cl)ccc1OCC(=O)Nc1nc2ccccc2s1 [Comparative Example 15] | – |
| > 100 µM | – | Cc1cc(Cl)ccc1OC(C)C(=O)N/N=C/c1ccccc1OC(F)(F)F (stereo not shown) [Comparative Example 17] | – |
| – | > 100 µM | Cc1cc(Cl)ccc1OC(C)(C)C(=O)N/N=C/c1ccccc1OC(F)(F)F [Comparative Example 18] | – |
| > 100 µM | > 100 µM | Cc1cc(Cl)ccc1OC(F)(F)C(=O)N/N=C/c1ccccc1OC(F)(F)F [Comparative Example 19] | – |
| 0.021 ± 0.005 µM | – | Cc1cc(Cl)ccc1OCC(=O)N/N=C/c1ccccc1OC(F)(F)F [Example 1] | ANO1 inhibitory activity (in words) [2]: strongest ANO1 inhibitory activity; inhibition of ANO1 activity as compared to Ani9 [8]: ≥ 4 times; IC50 ([8]; FRT cells expressing ANO1, short-circuit current, ATP 100 μM): 22 nM; inhibition at 100 µM [9]: 17.1%; inhibition of the activity of CFTR ([10]; 100 μM, forskolin-activated CFTR): did not inhibit; effect on cell viability of PC-3 cells highly expressing ANO1 [4]: selectively inhibited the growth of the PC-3 cells highly expressing ANO1 in a concentration-dependent manner; plasma stability [1]: higher stability in the mouse plasma than Ani9; half-life at 5 μM [1]: 104 min; reduction of ANO1 expression level as compared to Ani9 ([11]; 3 μM): about 11.5 times; decrease of the expression level of ANO1 ([11]; 3 μM): 59.8±4.6%; reduction of ANO1 expression level as compared to Ani9 ([11]; 10 μM): ~2.28 times; decrease of the expression level of ANO1 ([11]; 10 μM): 66.5±4.7%; effect on cell viability of MCF7 breast cancer cells highly expressing ANO1 [6]: selectively inhibited the growth; effect on cell viability of BxPC3 pancreatic cancer cells highly expressing ANO1 [7]: selectively inhibited the growth; contraction frequency of smooth muscle [12]: no effect; contraction of smooth muscle of the mouse ileum [12]: strongly inhibited; decrease of maximum contraction intensity of smooth muscle ([12]; 300 nM): 53.3%; decrease of maximum contraction intensity of smooth muscle ([12]; 1 μM): 68.8% |
| 10.7 ± 0.14 µM | > 100 µM | COc1ccccc1CNNC(=O)COc1ccc(Cl)cc1C [Example 2] | – |
| 19.4 ± 0.01 µM | 12.4 ± 0.05 µM | COc1ccccc1-c1nnc(COc2ccc(Cl)cc2C)o1 [Example 3] | – |
| 21.2 ± 0.17 µM | > 100 µM | Cc1cc(Cl)ccc1OCc1nnc(-c2ccccc2F)o1 [Example 4] | – |
| 0.3 ± 0.02 µM | > 100 µM | C/C(=N\NC(=O)COc1ccc(Cl)cc1C)c1ccccc1OC(F)(F)F [Example 6] | ANO1 inhibitory activity (in words) [2]: slightly weaker inhibitory activity than the compound of Example 1; reduction of ANO1 expression level as compared to Ani9 ([11]; 10 μM): about 1.21 times; decrease of the expression level of ANO1 ([11]; 10 μM): 28.9±0.9% |
| 20.6 ± 0.02 µM | 13.1 ± 0.07 µM | COc1ccccc1CNC(=O)COc1ccc(Cl)cc1C [Example 11] | – |
| 14.8 ± 0.01 µM | > 100 µM | CCOC(=O)c1csc(NC(=O)COc2ccc(Cl)cc2C)n1 [Example 14] | – |
